Compound | melting point
Brc1ccc2cc(N(c3ccccc3)c3ccccc3)ccc2c1 | 136 to 137 °C
COc1cc(-c2cc(-c3ccc(-c4c(Cc5ccccc5)sc5ccccc45)cc3)ccc2OCC(=O)O)cc(OC)c1OC | 93 to 94 °C
CCCCCCCCCNC(=O)CCCC | 29 to 31 °C
Cc1ccc(C(C)N(O)C(N)=S)s1 (configuration not stated) | 155 °C
CC#CCOc1ccc(S(=O)(=O)C2(C(=O)NO)CCOCC2)cc1 | 210 °C
C=CCOC(=O)CC(C(C)=O)S(=O)(=O)c1ccccc1 (configuration not stated) | 62 to 64 °C
CC(C)c1cc(OCCOCc2ccccc2)cc2c1C(=O)N(CCl)S2(=O)=O | 101 to 102 °C
CC(Cc1cccc(N)c1)(NC=O)c1ccccc1 (configuration not stated) | 114 to 115 °C
Cc1nc(C)c(C(=O)CBr)[nH]1 | 128 to 132 °C
COc1cc2ncnc(N3CCC(C(O)CN4CCC(C)NS4(=O)=O)CC3)c2cc1OC (configuration not stated) | 189 to 193 °C
COc1ccc(OC)c(Cc2c(C)c3c(N)nc(N)nc3[nH]c2=O)c1 | 325 to 326 °C
CN(C)CCN1C(=O)c2cscc2N(C)c2ncccc21 | 129 to 130 °C
COc1cc(Nc2c(C#N)cnc3cc(-c4cccc5ccccc45)ccc23)c(Cl)cc1Cl | 192 to 193 °C
CC1(C)CC=C(Nc2ccccc2Cl)C(=O)C1 | 150 to 152 °C
CCOC(=O)N1Cc2cc(=O)[nH]nc2C(C)C1 (configuration not stated) | 125 to 127 °C
N#CCSC(=O)c1ccc(C#N)cc1 | 132 to 134 °C
CCCCCCCCS(=O)(=O)c1ccc(CC(COC(C)=O)(COC(C)=O)NC(C)=O)cc1 | 98 to 100 °C
CCCCOc1ccc(S(=O)(=O)NC(=NO)Nc2ccc(Cl)cc2)cc1 | 175 to 176 °C
CCCCCCCCCCCCC/C=C(/C(=O)Nc1ccc(C(=O)O)cc1)c1ccc2c(c1)C(C)(C)CCC2(C)C | 59 to 60 °C
CS(=O)(=O)N(CCCl)N(S(C)(=O)=O)S(C)(=O)=O | 154 to 155 °C
CNC(=O)c1cc(NCc2c(C)cccc2C)c2nc(C)n(C)c2c1 | 252 to 253 °C
Cn1cc2ccc(F)cc2c1 | 60 to 65 °C
COc1ccc(C2=NN(c3ccc(O)cc3)C(=O)[C@@H]3CC=CC[C@H]23)cc1OC | 111 to 112 °C
CCCCCCC1CC(c2ccc(CCCC)cc2)C(=O)O1 (configuration not stated) | 37.7 °C
Cc1ccc2c(c1)C1=NN(C(=O)c3cccnc3)CC1CO2 (configuration not stated) | 177 to 178 °C
Cn1c(CC(=O)NC2CN3CCC2CC3)cc2ccccc21 (configuration not stated) | 185 to 187 °C

Compound | melting point
N#CC1(c2ccc(F)cc2)C2CC3CC(C2)CC1C3 (configuration not stated) | 81 to 82 °C
O=c1[nH]c(=O)n(C2CC(O)C(CO)O2)cc1-c1ccccn1 (configuration not stated) | 201 to 203 °C
CCOC(=Cc1ccc(-c2cccc(N(C)C(=O)NC3CCCCC3)c2)cc1)C(=O)O | 85 °C
CC(C)(C)OC(=O)[C@@H]1CC[C@H](c2ccccc2)N1C(=O)CNC(=O)Nc1cccc(CC(=O)O)c1 | 112 °C
CC(CCN(C)C1CCC(c2ccc3[nH]c(=O)oc3c2)CC1)c1ccccc1 (configuration not stated) | 61 to 70 °C
Nc1nc2c(NCc3ccccc3)ncnc2n1C1OC(CO)C(O)C1O (configuration not stated) | 80 to 82 °C
CCCc1c(-c2ccc(Cl)cc2)n[nH]c1-c1cccs1 | 129 to 132 °C
COC(=O)CC1(c2c(C)c(OC)c(C)c(C)c2OC)C=CC2=NCOC2=C1 (configuration not stated) | 68 to 69 °C
CCOC(=O)c1nc2cc(Br)ccn2n1 | 158 to 160 °C
N#Cc1nc(-c2ccccc2)c[nH]1 | 151 to 153 °C
CC(C)(C)CC(C)(C)c1cc(-n2nc3ccc(Sc4ccccc4)cc3n2)c(O)c(C(C)(C)c2ccccc2)c1 | 124 to 125 °C
c1ccc(C(NC23CC4CC(C2)CC(OCc2ccc(-c5nc6ccccc6o5)cc2)(C4)C3)(c2ccccc2)c2ccccc2)cc1 | 174 to 177 °C
CCOC(=O)CCc1cn(-c2ccc(Br)cn2)nc1C(C)(C)C | 94 to 95 °C
Nn1c(C2CC2)cc(-c2ccc(C(F)(F)F)cc2)cc1=O | 132 °C
CC(=O)OCC(C)C1=CCC2C3CC=C4CC(OC(C)=O)CCC4(C)C3CCC12C (configuration not stated) | 116 to 117 °C
CCCCCC(CC(=O)Nc1cc(C(=O)NC(=O)C(C)C)ccc1C(C)(C)C)c1ccc(OC)cc1OC (configuration not stated) | 157 to 159 °C
COCCOc1cc2c(cc1-c1ccc(F)cc1)NC(=O)CC(c1cccc(-n3ccnc3)c1)=N2 | 196 to 197 °C
CCC(=O)N[C@@H](C)C(=O)N1CCC[C@H]1C(=O)NC1CCCCCC1 | 155 to 156 °C
ClCc1coc(-c2ccsc2)n1 | 91 to 92 °C
C[C@](O)(CBr)C(=O)Nc1ccc(C#N)c(C(F)(F)F)c1 | 124 to 126 °C
CC(O)c1nsc2nc3ccccc3n12 (configuration not stated) | 174 to 175 °C
Cc1ccc(C=COc2cccc3c2C(=O)c2ccccc2C3=O)cc1 | 88 to 90 °C
COc1ccc2c(c1)[nH]c1c(C)c(OS(=O)(=O)c3cccc4c(N(C)C)cccc34)ccc12 | 174 °C
Nc1nc2ccccc2n1-c1cccc(-n2c(N)nc3ccccc32)c1 | 270 °C
O=[N+]([O-])c1ccccc1/C=C/c1ccc(Cl)cc1[N+](=O)[O-] | 158 to 159 °C

Further lines, results first:

melting point | Compound
48 to 50 °C | O=C=Nc1cc(Cl)c(Br)cc1CBr
135 to 137 °C | CSC1(C)C(=O)Nc2c(C(=O)c3ccccc3)cccc21 (configuration not stated)
187 to 189 °C | COc1ccc(NC(=O)c2ccc(F)c(F)c2)cc1NCc1cccs1
123 to 125 °C | Cc1cc2c(nc1C(O)c1cccc(Cl)c1)CCCCC2 (configuration not stated)
123 to 124 °C | CCCc1cc(C(=O)O)ccc1OCCCCCCc1cccc(O)c1O
123 to 124 °C | O=S(=O)(CF)c1ccc(C2=C(c3ccc(F)cc3)CCC2)cc1
125 to 128 °C | CCC(=O)c1cnc2c(O)cccc2c1Nc1ccccc1C
176 to 177 °C | Cc1c(-c2ccc(O)cc2)nnn1-c1ccc(C(F)(F)F)cc1Cl
> 260 °C | CC(C)(C)c1cc(C=Cc2n[nH]c(=O)o2)cc(C(C)(C)C)c1O
80 to 81 °C | CCCCCc1nc(-c2ccccc2)c(CCC(=O)O)o1
275 to 277 °C | Clc1cccc2[nH]c3c4ccccc4nc-3c(Cl)c12
118 to 120 °C | O=C(O)CCCc1ccc(-c2ccc(F)cc2)cc1
153 to 157 °C | O=C(O)C1Oc2ccccc2Cc2ccccc2O1
124 to 125 °C | CN(C)CCNC(=O)Cn1c(-c2cccc(Cl)c2)nc2cccnc21
226 to 227 °C | Cc1ccccc1C(Oc1cc(OCc2cncs2)ccc1C#N)C(=O)O (configuration not stated)
186 to 188 °C | Cc1c(C)c2c(c(C)c1NC(=O)NCCO)C(c1ccc(C(C)C)cc1)CO2 (configuration not stated)
87 to 90 °C | COC(=O)c1c(C)cc(OC)c(C)c1O
245 °C | CCc1ccc(COc2ccc(CC(NC(=O)c3cn4ccc(-c5ccc(Cl)cc5)cc4n3)C(=O)O)cc2)cc1 (configuration not stated)
93 °C | CCOC(=O)c1cc(CCc2cc(OC)ccc2OC)ccc1NC(C)=O
222 to 233 °C | Cc1cnc2c(NC(=O)c3c(Cl)cccc3Cl)ccc(Cl)c2c1Cl
164 °C | CC(=O)c1c(N2CCOCC2)nn2ccccc12
128 to 135 °C | COc1ccc(COc2cccc(OC)c2C(=O)/C=C(\Nc2cnc(C#N)cn2)SC)cc1
69 to 70 °C | CCCCCCSc1c(O)cc(C)oc1=O
82 °C | Cc1cn2c(nc1=O)CCC2
210 to 213 °C | O=C(c1c(F)cccc1F)N1COCN(c2ccc(S(=O)(=O)C(F)F)cc2F)C1=O
97 to 98 °C | O=C(c1nc2ccccc2s1)C1CCN(CCc2ccc(F)cc2)CC1

melting point | Compound
165 to 166 °C | C=CCCC1(C(F)(F)F)OC(=O)Nc2ccc(Cl)cc21 (racemic)
257 °C | NC(=S)Cc1cccc(-c2nc(=O)c3ccccc3s2)n1
191 to 193 °C | Cc1c(-c2ccccc2)oc2c(C(=O)NCCCO)cccc2c1=O
150 to 151 °C | O=C1C(Cl)=C(C2CCCCC2)C(=O)c2ccccc21
168 to 169 °C | NC(=O)c1cccc(-c2ccc(F)c3cc(Cc4cc(F)cc(Cl)c4)sc23)c1
255 to 256 °C | O=C(O)c1cn(C2COC2)c2cc(F)c(F)cc2c1=O
127 °C | Cc1nc(S(=O)Cc2ccc(Cl)cc2)nc2c1CCCC2 (configuration not stated)
153 °C | O=C(c1ccc(I)cc1)c1ccc2nc(Cl)nc(-c3cccc(Cl)c3)c2c1
158 to 160 °C | ON=Cc1c[nH]cc1-c1cccc(Cl)c1Cl
90 to 93 °C | CCCn1c(=O)n(Cc2ccccc2)c(=O)c2c(Cl)cc(Cl)cc21
154 to 155 °C | CCOCC1(C)CCCSc2cc(C#Cc3ccc(C(=O)O)cc3)ccc21 (configuration not stated)
92 to 93 °C | COc1cccc(CC(=O)O)c1OCCCc1cn(-c2ccc(C(F)(F)F)nn2)nc1C(C)C
135 °C | O=C1CCCn2c(=O)n(Cc3ccccc3)c3cccc1c32
62 to 75 °C | COC(=O)c1c(O)cc(C(F)(F)F)nc1C(F)(F)F
215 to 217 °C | CNC(=O)Cn1c(-c2ccc(F)cc2)nc2cccnc21
225 to 228 °C | CCn1cc(C(=O)O)c(=O)c2cc(F)c(N3CCN(CCO)CC3)c(F)c21
138 to 139 °C | COC(=O)CCc1cc2cc(F)c(Cl)cc2[nH]1
84 to 86 °C | CC(=O)c1ccc2c(c1)[C@@H](O)[C@H](Br)C(C)(C)O2 (relative stereo)
69 to 82.3 °C | COCc1cnc(NC(=O)C(Cc2ccc(F)cc2)c2ccc(S(C)(=O)=O)cc2)cn1 (configuration not stated)
147 °C | CC1=C(CNC(=O)NCCCN(C)C)c2cc(F)ccc2/C1=C\c1ccc(S(C)(=O)=O)cc1
272 to 273 °C | COc1ccc2ccc3nc(C(=O)O)cn3c2c1
163 °C | CCC1OCCn2c1nc(C(=O)NCc1ccc(F)cc1-n1ncnc1C)c(OCc1ccccc1)c2=O (configuration not stated)
102 to 105 °C | O=C(O)c1c(F)c(Cl)c(O)c(Cl)c1F
183 to 184 °C | COC(=O)C1C(=O)Nc2ccc(C(F)(F)F)cc2CC1c1ccccc1Cl (configuration not stated)
198 to 200 °C | O=C(Nc1cccc(C(F)(F)F)c1)c1ccccc1C(c1ccc(O)cc1)c1ccc(O)cc1
